From patent US10435405B2, “Pyrazolopyridine compounds and uses thereof” (Incyte Corporation, priority 2016, dated 2019)
pKi: −log10 of the molar value.

Molecular target: HPK1 (Homo sapiens (Human), UniProt Q92918)
Assay: HPK1 Kinase Binding Assay
Procedure: A stock solution of 1 mM test compound was prepared in DMSO. The compound plate was prepared by 3-fold and 11-point serial dilutions. 0.1 μL of the compound in DMSO was transferred from the compound plate to the white 384 well polystyrene plates. The assay buffer contained 50 mM HEPES, pH 7.5, 0.01% Tween-20, 5 mM MgCl2, 0.01% BSA, and 5 mM DTT. 5 μl of 4 nM active HPK1 (SignalChem M23-11G) prepared in the buffer was added to the plate. The enzyme concentration given was based on the given stock concentration reported by the vender. 5 μl of 18 nM tracer 222 (ThermoFisher PV6121) and 4 nM LanthaScreen Eu-Anti GST antibody (ThermoFisher PV5595) were added. After one hour incubation at 25° C., the plates were read on a PHERAstar FS plate reader (BMG Labtech). Ki values were determined.

Chain of HPK1 (Q92918 1-346): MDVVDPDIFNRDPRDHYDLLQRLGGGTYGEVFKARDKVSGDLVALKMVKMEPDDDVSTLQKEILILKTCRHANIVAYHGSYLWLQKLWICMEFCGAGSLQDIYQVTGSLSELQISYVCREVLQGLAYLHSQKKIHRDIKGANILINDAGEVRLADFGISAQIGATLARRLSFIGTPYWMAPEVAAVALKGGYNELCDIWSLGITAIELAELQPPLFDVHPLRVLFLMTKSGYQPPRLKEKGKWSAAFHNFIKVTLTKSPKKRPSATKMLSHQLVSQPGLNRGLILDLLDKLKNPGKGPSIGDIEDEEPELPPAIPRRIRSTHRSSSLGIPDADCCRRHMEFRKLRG

Compound | pKi
COc1cccc(F)c1-c1cc2c(NC(=O)c3cccc(N4CCN(CC(F)(F)F)C(=O)C4)c3)n[nH]c2cn1 [Example 21, N-(5-(2-Fluoro-6-methoxyphenyl)-1H-pyrazolo[3,4-c]pyridin-3-yl)-3-(3-oxo-4-(2,2,2-trifluoroethyl)piperazin-1-yl)benzamide] | ≥ 7.00
COc1cccc(F)c1-c1cc2c(NC(=O)c3cccc(N4CCN(S(C)(=O)=O)CC4)c3)n[nH]c2cn1 [Example 22, N-(5-(2-Fluoro-6-methoxyphenyl)-1H-pyrazolo[3,4-c]pyridin-3-yl)-3-(4-(methylsulfonyl)piperazin-1-yl)benzamide] | ≥ 7.00
COc1cccc(F)c1-c1cc2c(NC(=O)c3cccc(N4CCNCC4)c3)n[nH]c2cn1 [Example 23, N-(5-(2-fluoro-6-methoxyphenyl)-1H-pyrazolo[3,4-c]pyridin-3-yl)-3-(piperazin-1-yl)benzamide] | ≥ 7.00
COc1cccc(F)c1-c1cc2c(NC(=O)c3ccc(N4CCOCC4)cc3)n[nH]c2cn1 [Example 24, N-(5-(2-Fluoro-6-methoxyphenyl)-1H-pyrazolo[3,4-c]pyridin-3-yl)-4-morpholinobenzamide] | ≥ 7.00
COc1cccc(F)c1-c1cc2c(NC(=O)c3ccc(N4CCNC(=O)C4)cc3)n[nH]c2cn1 [Example 25, N-(5-(2-Fluoro-6-methoxyphenyl)-1H-pyrazolo[3,4-c]pyridin-3-yl)-4-(3-oxopiperazin-1-yl)benzamide] | ≥ 7.00
COc1cccc(F)c1-c1cc2c(NC(=O)c3ccc(N4CCN(C)CC4)cc3)n[nH]c2cn1 [Example 26, N-(5-(2-Fluoro-6-methoxyphenyl)-1H-pyrazolo[3,4-c]pyridin-3-yl)-4-(4-methylpiperazin-1-yl)benzamide] | ≥ 7.00
COc1cccc(F)c1-c1cc2c(NC(=O)c3ccc(N4CCN(C)C(=O)C4)cc3)n[nH]c2cn1 [Example 27, N-(5-(2-fluoro-6-methoxyphenyl)-1H-pyrazolo[3,4-c]pyridin-3-yl)-4-(4-methyl-3-oxopiperazin-1-yl)benzamide] | ≥ 7.00
CCN1CCN(c2ccc(C(=O)Nc3n[nH]c4cnc(-c5c(F)cccc5OC)cc34)cc2)CC1 [Example 28, 4-(4-Ethylpiperazin-1-yl)-N-(5-(2-fluoro-6-methoxyphenyl)-1H-pyrazolo[3,4-c]pyridin-3-yl)benzamide] | ≥ 7.00
COc1cccc(F)c1-c1cc2c(NC(=O)c3ccc(N4CCN(CC(F)(F)F)C(=O)C4)cc3)n[nH]c2cn1 [Example 29, N-(5-(2-Fluoro-6-methoxyphenyl)-1H-pyrazolo[3,4-c]pyridin-3-yl)-4-(3-oxo-4-(2,2,2-trifluoroethyl)piperazin-1-yl)benzamide] | ≥ 7.00
COc1cccc(F)c1-c1cc2c(NC(=O)c3ccc(N4CCN(C(C)C)CC4)cc3)n[nH]c2cn1 [Example 30, N-(5-(2-Fluoro-6-methoxyphenyl)-1H-pyrazolo[3,4-c]pyridin-3-yl)-4-(4-isopropylpiperazin-1-yl)benzamide] | ≥ 7.00
COc1cccc(F)c1-c1cc2c(NC(=O)c3ccc(N4CCN(C5CC5)C(=O)C4)cc3)n[nH]c2cn1 [Example 31, 4-(4-Cyclopropyl-3-oxopiperazin-1-yl)-N-(5-(2-fluoro-6-methoxyphenyl)-1H-pyrazolo[3,4-c]pyridin-3-yl)benzamide] | ≥ 7.00
COc1cccc(F)c1-c1cc2c(NC(=O)c3ccc(N4CCN(S(C)(=O)=O)CC4)cc3)n[nH]c2cn1 [Example 32, N-(5-(2-Fluoro-6-methoxyphenyl)-1H-pyrazolo[3,4-c]pyridin-3-yl)-4-(4-(methylsulfonyl)piperazin-1-yl)benzamide] | ≥ 7.00
COc1cccc(F)c1-c1cc2c(NC(=O)c3ccc(N4CCNCC4)cc3)n[nH]c2cn1 [Example 33, N-(5-(2-Fluoro-6-methoxyphenyl)-1H-pyrazolo[3,4-c]pyridin-3-yl)-4-(piperazin-1-yl)benzamide] | ≥ 7.00
COc1cccc(F)c1-c1cc2c(-c3cnc(N4CCOCC4)s3)n[nH]c2cn1 [Example 34, 4-(5-(5-(2-Fluoro-6-methoxyphenyl)-1H-pyrazolo[3,4-c]pyridin-3-yl)thiazol-2-yl)morpholine] | ≥ 7.00
